Patent US10676468B2, “N-(3-heteroarylaryl)-4-arylarylcarboxamides and analogs as hedgehog pathway inhibitors and use thereof” (IMPACT Therapeutics, Inc., priority 2012, dated 2020)
Structures can show the parent of a compound that is named as a salt.

Legend:
Assay type in all cases: cell-based, mouse
[1] = test system: Hedgehog Signaling Pathway; assay: Gli-Luc reporter gene cell assay in C3H10T1/2/Gli-Luc cells stimulated with Shh; settings: 30 nM Shh, luciferase activity (RLU), read-out: IC50 values of compounds that inhibit Hh pathway
Excerpt: The Application of Reporter Gene Cell Assay for the Determination of the Inhibitory Activity of N-(3-(1H-benzo[d]imidazol-2-yl)-4-chlorophenyl)-2-methyl-4-((2S,6R)-2,6-dimethylmorpholino) benzamide and Analogs on Hedgehog Signaling Pathway
The binding of Sonic hedgehog (Shh) to its receptor Patched 1 initiates numerous intracellular signal transmission, and leads to the nuclear translocation of Gli and the elevated transcription of Gli target genes. When C3H10T1/2 cells are stably transfected with the Gli-Luc plasmids containing the luciferase gene under the control of Gli response element and stimulated with Shh, the expression of luciferase is elevated. Luciferase activity is indicative of the hedgehog signaling pathway activity. Therefore, the inhibitory activity of compounds on hedgehog signaling pathway can be measured using the luciferase activity when the transfected cells are stimulated with Shh.
The day before experiment, C3H10T1/2/Gli-Luc cells in log phase of growth were seeded into 96 well plate at a density of 20000 cells per well. The cells were maintained in DMEM (Hyclone) supplemented with 10% FBS (Hyclone) and incubated at 37° C. with 5% CO2 overnight. The compounds to be examined were diluted into 7 different concentrations by series of dilutions (⅓ and 1/10), and the eighth point of concentration is the DMSO control. Those solutions were diluted 100-fold in the fresh growth medium. The cells were taken out of the incubator and the medium of cultured cells were removed. Then, each well was added in an orderly manner with 80 μL of fresh growth medium, 20 μL of medium pre-dilution of positive compound and compounds to be tested, as well as 100 μL of growth medium containing 30 nM of Shh. The cells are returned to the incubator, and incubated for 24 hours.
Measurement of luciferase activity: After taking the 96 well plate out of the incubator, the supernatants were discarded and the cells were washed twice with PBS. Thereafter, each well was dispensed with 20 μL of lysis buffer (Promega E1531), and the plate was shaken for 30 min at room temperature. Following transferring 5 μL of cell lysate into 384 well plate (Greiner 781074), adding 25 μL of luciferase reaction buffer (Promega E1501) into each well and mixing the plate, the relative light unit (RLU) was immediately captured by VarioSkan Flash.
The data were analyzed with Prism 5 software (GraphPad). The relative light unit (RLU) was plotted against the log concentration of testing compound, and the obtained plot was fitted with non-linear curve fitting equation to calculate IC50 values. The curve fitting equation is Y (RLU)=Bottom+(Top−Bottom)/(1+10^((X−Log IC50))). X is the logarithm of concentration. Y is the measure of relative light unit (RLU).
The calculated IC50 value is a measurement of the inhibitory activity of compound to Hh pathway.

[2] = test system: Hedgehog Signaling Pathway; assay: SHH-induced differentiation of C3H10T1/2 cells into osteoblastic cells, intracellular alkaline phosphatase activity; settings: 10 nM SHH-N, 5 days, alkaline phosphatase activity (OD405), read-out: IC50 values of compounds that inhibit Hh pathway
Method in brief: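 Hedgehog pathway inhibition was taken as loss of SHH-driven osteoblastic differentiation. Test compound (10 nM–10 μM) plus SHH-N (10 nM) was applied to C3H10T1/2 cells for 5 days, then lysate phosphatase turnover was measured as the 30-min OD405 change at 37 °C. IC50 was fitted from activity versus log dose.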

[3] = test system: Hedgehog Signaling Pathway; assay: SAG-induced differentiation of C3H10T1/2 cells into osteoblastic cells, intracellular alkaline phosphatase activity; settings: Mus musculus, C3H 10T1/2, 120 h, 1 μM SAG, 5 days, alkaline phosphatase activity (OD405), read-out: IC50 values of compounds that inhibit Hh pathway
Method in brief: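 Mouse C3H10T1/2 cells were induced with SAG and exposed to compound (10 μM to 1 nM) for 5 days at 37 °C. Cells were lysed in 0.2% Triton, and alkaline phosphatase activity was read as OD405 over 30 min at 37 °C in pH 9.8 substrate buffer. IC50 came from a non-linear fit of background-subtracted OD405 against log concentration.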

[4] = Mus musculus, C3H 10T1/2, 120 h

Row | IC50 ([1]; Mus musculus, C3H 10T1/2, 24 h) [nM] | IC50 [2, 4] [nM] | IC50 [3] [nM] | IC50 ([1]; 24 hours, Dihydrochloride) [nM] | IC50 ([2]; Dihydrochloride) [nM] | SMILES
1 | 3.3 | 2.6 | 19 | – | – | Cc1cc(-c2ccc(C#N)cc2)ccc1C(=O)Nc1ccc(Cl)c(-c2nc3ccccc3[nH]2)c1 [Example 6, N-(3-(1H-benzo[d]imidazol-2-yl)-4-chlorophenyl)-3-methyl-4′-cyanobiphenyl-4-carboxamide]
2 | 4.6 | 3.5 | 25 | – | – | Cc1cc(-c2ccc([N+](=O)[O-])cc2)ccc1C(=O)Nc1ccc(Cl)c(-c2nc3ccccc3[nH]2)c1 [Example 7, N-(3-(1H-benzo[d]imidazol-2-yl)-4-chlorophenyl)-3-methyl-4′-nitrobiphenyl-4-carboxamide]
3 | 4.6 | 3.6 | 86 | – | – | Cc1cc(-c2ccc(Cl)cc2)ccc1C(=O)Nc1ccc(Cl)c(-c2nc3ccccc3[nH]2)c1 [Example 8, N-(3-(1H-benzo[d]imidazol-2-yl)-4-chlorophenyl)-3-methyl-4′-chlorobiphenyl-4-carboxamide]
4 | 9.5 | 5.5 | 80 | – | – | Cc1cc(C(=O)Nc2ccc(Cl)c(-c3nc4ccccc4[nH]3)c2)ccc1-c1ccc(C(F)(F)F)cc1 [Example 14, N-(3-(1H-benzo[d]imidazol-2-yl)-4-chlorophenyl)-2-methyl-4′-(trifluoromethyl)biphenyl-4-carboxamide]
5 | 8.2 | 3.7 | 60 | – | – | O=C(Nc1ccc(Cl)c(-c2nc3ccccc3[nH]2)c1)c1ccc(-c2ccc(C(F)(F)F)cc2)cc1Cl [Example 18, N-(3-(1H-benzo[d]imidazol-2-yl)-4-chlorophenyl)-3-chloro-4′-(trifluoromethyl)biphenyl-4-carboxamide]
6 | 5.8 | 2.3 | 30 | – | – | Cc1cc(-c2ccc(C(F)(F)F)cc2)ccc1C(=O)Nc1ccc(Cl)c(-c2nc3ccccc3[nH]2)c1 [Example 21, N-(3-(1H-benzo[d]imidazol-2-yl)-4-chlorophenyl)-3-methyl-4′-(trifluoromethyl)biphenyl-4-carboxamide]
7 | 16 | 15 | 124 | – | – | O=C(Nc1ccc(Cl)c(-c2nc3ccccc3[nH]2)c1)c1ccc(-c2ccc(C(F)(F)F)cc2)cc1 [Example 22, N-(3-(1H-benzo[d]imidazol-2-yl)-4-chlorophenyl)-4′-(trifluoromethyl)biphenyl-4-carboxamide]
8 | 4 | 5.5 | 191 | – | – | Nc1cc(-c2ccc(C(F)(F)F)cc2)ccc1C(=O)Nc1ccc(Cl)c(-c2nc3ccccc3[nH]2)c1 [Example 25, N-(3-(1H-benzo[d]imidazol-2-yl)-4-chlorophenyl)-3-amino-4′-(trifluoromethyl)biphenyl-4-carboxamide]
9 | 5.5 | 5.1 | 89 | – | – | Cc1cc(-c2ccc(C(F)(F)F)cc2)ccc1C(=O)Nc1ccc(C)c(-c2nc3ccccc3[nH]2)c1 [Example 46, N-(3-(1H-benzo[d]imidazol-2-yl)-4-methylphenyl)-3-methyl-4′-(trifluoromethyl)biphenyl-4-carboxamide]
10 | 8.7 | 3.3 | 102 | – | – | Cc1cc(-c2ccc(C(F)(F)F)cc2)ccc1C(=O)Nc1ccc(Cl)c(-c2nc3ccccc3n2C)c1 [Example 47, N-(3-(1-methyl-1H-benzo[d]imidazol-2-yl)-4-chlorophenyl)-3-methyl-4′-(trifluoromethyl)biphenyl-4-carboxamide]
11 | 7.2 | 2.4 | 261 | – | – | Cc1cc(-c2ccc(C(F)(F)F)cc2)ccc1C(=O)Nc1ccc(Cl)c(-c2nc3cnccc3[nH]2)c1 [Example 49, N-(3-(1H-imidazo[4,5-c]pyridin-2-yl)-4-chlorophenyl)-3-methyl-4′-(trifluoromethyl)biphenyl-4-carboxamide]

The next lines start with the compound.

Row | SMILES | IC50 ([1]; Mus musculus, C3H 10T1/2, 24 h) [nM] | IC50 [2, 4] [nM] | IC50 [3] [nM] | IC50 ([1]; 24 hours, Dihydrochloride) [nM] | IC50 ([2]; Dihydrochloride) [nM]
12 | Cc1cc(N2C[C@@H](C)O[C@@H](C)C2)ccc1C(=O)Nc1ccc(Cl)c(-c2nc3ccccc3[nH]2)c1 [Example 32, N-(3-(1H-benzo[d]imidazol-2-yl)-4-chlorophenyl)-2-methyl-4-((2S,6R)-2,6-dimethylmorpholino)benzamide] | 7.2 | 7.9 | 53 | – | –
13 | C[C@@H]1CN(c2ccc(C(=O)Nc3ccc(Cl)c(-c4nc5ccccc5[nH]4)c3)cn2)C[C@H](C)O1 [Example 35, N-(3-(1H-benzo[d]imidazol-2-yl)-4-chlorophenyl)-6-((2S,6R)-2,6-dimethylmorpholino)nicotinamide] | 7.8 | 10 | 56 | – | –
14 | Cc1nc(N2C[C@@H](C)O[C@@H](C)C2)ccc1C(=O)Nc1ccc(Cl)c(-c2nc3ccccc3[nH]2)c1 [Example 38, N-(3-(1H-benzo[d]imidazol-2-yl)-4-chlorophenyl)-2-methyl-6-((2S,6R)-2,6-dimethylmorpholino)nicotinamide] | 8.4 | 4.9 | 28 | – | –
15 | COc1ncc(-c2ccc(C(=O)Nc3ccc(Cl)c(-c4nc5ccccc5[nH]4)c3)c(C)c2)cn1 [Example 39, N-(3-(1H-benzo[d]imidazol-2-yl)-4-chlorophenyl)-2-methyl-4-(2-methoxypyrimidin-5-yl)benzamide] | 8.2 | 15 | 40 | – | –
16 | Cc1cc(-c2cncnc2)ccc1C(=O)Nc1ccc(Cl)c(-c2nc3ccccc3[nH]2)c1 [Example 43, N-(3-(1H-benzo[d]imidazol-2-yl)-4-chlorophenyl)-2-methyl-4-(pyrimidin-5-yl)benzamide] | 12 | 8.5 | 16 | – | –
17 | Cc1cc(-c2ccc(C(F)(F)F)cc2)ccc1C(=O)Nc1ccc(Cl)c(-c2ncc(-c3ccccc3)[nH]2)c1 [Example 50, N-(3-(5-phenyl-1H-imidazol-2-yl)-4-chlorophenyl)-3-methyl-4′-(trifluoromethyl)biphenyl-4-carboxamide] | 10 | 7.9 | 125 | – | –
18 | Cc1cc(-c2ccc(C(F)(F)F)cc2)ccc1C(=O)Nc1ccc(Cl)c(-c2ccccn2)c1 [Example 59, N-(3-(pyridin-2-yl)-4-chlorophenyl)-3-methyl-4′-(trifluoromethyl)biphenyl-4-carboxamide] | 9.1 | 7.5 | 232 | – | –
19 | Cc1cc(-c2ccc(C(F)(F)F)cc2)ccc1C(=O)Nc1cncc(-c2nc3ccccc3[nH]2)c1 [Example 60, N-(5-(1H-benzo[d]imidazol-2-yl)pyridin-3-yl)-3-methyl-4′-(trifluoromethyl)biphenyl-4-carboxamide] | 23 | 18 | 141 | – | –
20 | C[C@@H]1CN(c2ccc(C(=O)Nc3ccc(Cl)c(-c4nc5ccc(F)cc5[nH]4)c3)c(Cl)c2)C[C@H](C)N1C [Example 131, N-(3-(6-fluoro-1H-benzo[d]imidazol-2-yl)-4-chlorophenyl)-2-chloro-4-((3S,5R)-3,4,5-trimethylpiperazin-1-yl)benzamide Dihydrochloride] | – | – | – | 1.2 | 7.2
21 | CCN1[C@H](C)CN(c2ccc(C(=O)Nc3ccc(Cl)c(-c4nc5cscc5[nH]4)c3)c(Cl)c2)C[C@@H]1C [Example 203, N-(3-(1H-thieno[3,4-d]imidazol-2-yl)-4-chlorophenyl)-2-chloro-4-((3S,5R)-4-ethyl-3,5-dimethylpiperazin-1-yl)benzamide] | 0.29 | – | – | – | –
